Like-named read-outs stand apart in the source and are kept apart here.
Experiment: 14-day oral gavage toxicokinetic study in rats
Type: in vivo
Details: male, rat, plasma, po; for concentration at 0.5 h / concentration at 1 h / concentration at 4 h / concentration at 8 h / concentration at 12 h / concentration at 24 h / concentration at […] / concentration at 2 h: rats; for half-life: read-out: t½ (converted)
Protocol: Plasma was obtained from blood samples collected from rats in a composite sampling scheme, with 3 samples collected per sex, per dose, at each target collection time, as illustrated in Table 21 to Table 25. Samples were collected from the vehicle control group on Day 1 and Day 14 at 3 hour after administration. […] Blood samples were collected in tubes containing K3EDTA as an anticoagulant and placed on ice until processed to plasma via centrifugation. Samples were stored frozen at −80° C. until shipment to the bioanalytical laboratory for analysis.
The following parameters were determined:
Cmax: Maximum observed plasma concentration (ng/mL).
A value of 0 ng/mL was assigned to all values below the lower limit of quantitation (BLQ, <10.0 ng/mL).
AUC(0-inf): Area under the plasma concentration vs. time curve extrapolated from 0 to infinity (ng*h/mL), calculated as AUC(0-t)+AUC(t-inf) where AUC(t-inf) is calculated as last measurable concentration (CLast) divided by ke, where ke is the elimination rate constant determined by linear regression of the last three analytically measured points on the log plasma concentration vs. time curve. The selection criteria of the data points for inclusion in the calculation of ke required that at least three data points representing the terminal phase (after Tmax) were regressed and that R2≧0.850 when rounded.
CL: Clearance (L/h/kg), calculated as the dose divided by AUC(0-t).
Vd: Volume of distribution (L/kg), calculated as dose divided by the product of ke and AUC(0-inf).
Vdss: Steady state volume of distribution (L/kg), calculated as clearance […] mean residence time, where mean residence time is calculated as the area under the first moment curve divided by AUC(0-t).
t½: Elimination half-life (h), calculated as ln(2)/ke, where ke is the elimination rate constant determined by linear regression. Half-life was defined as not determined if regression criteria (specified in AUC(0-inf) above) were not met.
Cmax/Dose: Normalized Cmax, calculated as Cmax divided by total dose.
AUC/Dose: Normalized AUC, calculated as AUC(0-t) divided by total dose.
ii. Statistical Analysis Mean and standard deviation (SD) were calculated in Watson. Values of BLQ were assigned a value of 0 ng/mL for mean calculations. Concentration values and derived TK parameters were reported to three significant figures.

[1] = 5 mg/kg, oral 5 mg/kg, Study Day 1, Male
[2] = 5 mg/kg, oral 5 mg/kg, Study Day 14, Male

Q: What does the source list for `CN1CCN(c2ccc(Nc3ncc4cc5n(c4n3)C3(CCCCC3)CNC5=O)nc2)CC1` [Compound 1, 2′-((5-(4-methylpiperazin-1-yl)pyridin-2-yl)amino)-7′,8′-dihydro-6′H-spiro[cyclohexane-1,9′-pyrazino[1′,2′:1,5]pyrrolo[2,3-d]pyrimidin]-6′-one]?
A: concentration at 0.5 h (5 mg/kg, Individual Compound 1 Plasma Concentration, daily oral 5 mg/kg, Day 1, Male, 0.5 h): 225 ng/mL; concentration at 1 h (5 mg/kg, Individual Compound 1 Plasma Concentration, daily oral 5 mg/kg, Day 1, Male, 1 h): 244 ng/mL; concentration at 4 h (5 mg/kg, Individual Compound 1 Plasma Concentration, daily oral 5 mg/kg, Day 1, Male, 4 h): 562 ng/mL; concentration at 8 h (5 mg/kg, Individual Compound 1 Plasma Concentration, daily oral 5 mg/kg, Day 1, Male, 8 h): 235 ng/mL; concentration at 12 h (5 mg/kg, Individual Compound 1 Plasma Concentration, daily oral 5 mg/kg, Day 1, Male, 12 h): 206 ng/mL; concentration at 24 h (5 mg/kg, Individual Compound 1 Plasma Concentration, daily oral 5 mg/kg, Day 1, Male, 24 h): 26.5 ng/mL; concentration at 0.5 h (5 mg/kg, Individual Compound 1 Plasma Concentration, daily oral 5 mg/kg, Day 14, Male, 0.5 h): 205 ng/mL; concentration at 1 h (5 mg/kg, Individual Compound 1 Plasma Concentration, daily oral 5 mg/kg, Day 14, Male, 1 h): 254 ng/mL; concentration at 4 h (5 mg/kg, Individual Compound 1 Plasma Concentration, daily oral 5 mg/kg, Day 14, Male, 4 h): 512 ng/mL; concentration at 12 h (5 mg/kg, Individual Compound 1 Plasma Concentration, daily oral 5 mg/kg, Day 14, Male, 12 h): 169 ng/mL; concentration at 24 h (5 mg/kg, Individual Compound 1 Plasma Concentration, daily oral 5 mg/kg, Day 14, Male, 24 h): 11.1 ng/mL; concentration at […] (5 mg/kg, Individual Compound 1 Plasma Concentration, daily oral 5 mg/kg, Day 14, Male, […]): 26 ng/mL; concentration at 0.5 h (5 mg/kg, Mean Compound 1 Plasma Concentration, oral 5 mg/kg, Day 1, 0.5 h, Male): 237 ng/mL; concentration at 1 h (5 mg/kg, Mean Compound 1 Plasma Concentration, oral 5 mg/kg, Day 1, 1 h, Male): 194 ng/mL; concentration at 2 h (5 mg/kg, Mean Compound 1 Plasma Concentration, oral 5 mg/kg, Day 1, 2 h, Male): 254 ng/mL; concentration at 4 h (5 mg/kg, Mean Compound 1 Plasma Concentration, oral 5 mg/kg, Day 1, 4 h, Male): 408 ng/mL; concentration at 8 h (5 mg/kg, Mean Compound 1 Plasma Concentration, oral 5 mg/kg, Day 1, 8 h, Male): 276 ng/mL; concentration at 12 h (5 mg/kg, Mean Compound 1 Plasma Concentration, oral 5 mg/kg, Day 1, 12 h, Male): 195 ng/mL; concentration at 24 h (5 mg/kg, Mean Compound 1 Plasma Concentration, oral 5 mg/kg, Day 1, 24 h, Male): 25.6 ng/mL; concentration at […] (5 mg/kg, Mean Compound 1 Plasma Concentration, oral 5 mg/kg, Day 1, […], Male): 16 ng/mL; concentration at 0.5 h (5 mg/kg, Mean Compound 1 Plasma Concentration, oral 5 mg/kg, Day 14, 0.5 h, Male): 298 ng/mL; concentration at 1 h (5 mg/kg, Mean Compound 1 Plasma Concentration, oral 5 mg/kg, Day 14, 1 h, Male): 258 ng/mL; concentration at 2 h (5 mg/kg, Mean Compound 1 Plasma Concentration, oral 5 mg/kg, Day 14, 2 h, Male): 436 ng/mL; concentration at 4 h (5 mg/kg, Mean Compound 1 Plasma Concentration, oral 5 mg/kg, Day 14, 4 h, Male): 421 ng/mL; concentration at 8 h (5 mg/kg, Mean Compound 1 Plasma Concentration, oral 5 mg/kg, Day 14, 8 h, Male): 273 ng/mL; concentration at 12 h (5 mg/kg, Mean Compound 1 Plasma Concentration, oral 5 mg/kg, Day 14, 12 h, Male): 198 ng/mL; concentration at 24 h (5 mg/kg, Mean Compound 1 Plasma Concentration, oral 5 mg/kg, Day 14, 24 h, Male): 16.2 ng/mL; concentration at […] (5 mg/kg, Mean Compound 1 Plasma Concentration, oral 5 mg/kg, Day 14, […], Male): 27.2 ng/mL; AUC(0-inf) [1]: 4850 ng·h/mL; AUC(0-t) [1]: 4680 ng·h/mL; Cmax [1]: 408 ng/mL; Tmax [1]: 4 h; half-life [1]: 4.52 h; AUC(0-inf) [2]: 5120 ng·h/mL; AUC(0-t) [2]: 5030 ng·h/mL; Cmax [2]: 436 ng/mL; Tmax [2]: 2 h; half-life [2]: 3.77 h; concentration at 1 h (15 mg/kg, Individual Compound 1 Plasma Concentration, daily oral 15 mg/kg, Day 1, Male, 1 h): 614 ng/mL; concentration at 2 h (15 mg/kg, Individual Compound 1 Plasma Concentration, daily oral 15 mg/kg, Day 1, Male, 2 h): 759 ng/mL; concentration at 4 h (15 mg/kg, Individual Compound 1 Plasma Concentration, daily oral 15 mg/kg, Day 1, Male, 4 h): 1160 ng/mL; concentration at 8 h (15 mg/kg, Individual Compound 1 Plasma Concentration, daily oral 15 mg/kg, Day 1, Male, 8 h): 696 ng/mL; concentration at 12 h (15 mg/kg, Individual Compound 1 Plasma Concentration, daily oral 15 mg/kg, Day 1, Male, 12 h): 451 ng/mL; concentration at […] (15 mg/kg, Individual Compound 1 Plasma Concentration, daily oral 15 mg/kg, Day 1, Male, […]): 49.7 ng/mL; concentration at 0.5 h (15 mg/kg, Individual Compound 1 Plasma Concentration, daily oral 15 mg/kg, Day 14, Male, 0.5 h): 741 ng/mL; concentration at 1 h (15 mg/kg, Individual Compound 1 Plasma Concentration, daily oral 15 mg/kg, Day 14, Male, 1 h): 1020 ng/mL; concentration at 2 h (15 mg/kg, Individual Compound 1 Plasma Concentration, daily oral 15 mg/kg, Day 14, Male, 2 h): 1350 ng/mL; concentration at 4 h (15 mg/kg, Individual Compound 1 Plasma Concentration, daily oral 15 mg/kg, Day 14, Male, 4 h): 1160 ng/mL; concentration at 8 h (15 mg/kg, Individual Compound 1 Plasma Concentration, daily oral 15 mg/kg, Day 14, Male, 8 h): 1190 ng/mL; concentration at 12 h (15 mg/kg, Individual Compound 1 Plasma Concentration, daily oral 15 mg/kg, Day 14, Male, 12 h): 583 ng/mL; concentration at 24 h (15 mg/kg, Individual Compound 1 Plasma Concentration, daily oral 15 mg/kg, Day 14, Male, 24 h): 61.4 ng/mL; concentration at […] (15 mg/kg, Individual Compound 1 Plasma Concentration, daily oral 15 mg/kg, Day 14, Male, […]): 89.9 ng/mL; concentration at 0.5 h (15 mg/kg, Mean Compound 1 Plasma Concentration, oral 15 mg/kg, Day 1, 0.5 h, Male): 620 ng/mL; concentration at 1 h (15 mg/kg, Mean Compound 1 Plasma Concentration, oral 15 mg/kg, Day 1, 1 h, Male): 810 ng/mL; concentration at 2 h (15 mg/kg, Mean Compound 1 Plasma Concentration, oral 15 mg/kg, Day 1, 2 h, Male): 1060 ng/mL
